Results published in PubChem BioAssay AID328 (DTP/NCI, 2004).
Toxic doses and inconclusive results are not listed.

System: BDF1 mice, P388 leukemia ip, median survival T/C
Test: NCI In Vivo Anticancer Drug Screen. Data for tumor model P388 Leukemia (intraperitoneal) in B6D2F1 (BDF1) mice
Conditions: endpoint: median survival time, higher = longer survival
In short: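 Steps: implant the tumour, treat one group with compound and another with vehicle, record survival, then divide treated by control.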

[1] = dose: 50.0 mg/kg/injection, schedule: Q01DX009 (ip), vehicle: saline
[2] = dose: 100.0 mg/kg/injection, schedule: Q01DX009 (ip), vehicle: saline
[3] = dose: 100.0 mg/kg/injection, schedule: Q04DX003 (ip), vehicle: saline with Tween-80
[4] = dose: 200.0 mg/kg/injection, schedule: Q04DX003 (ip), vehicle: saline with Tween-80
[5] = dose: 100.0 mg/kg/injection, schedule: Q04DX003 (ip), vehicle: Klucel (hydroxypropylcellulose) (HPC)
[6] = dose: 200.0 mg/kg/injection, schedule: Q04DX003 (ip), vehicle: Klucel (hydroxypropylcellulose) (HPC)
[7] = dose: 400.0 mg/kg/injection, schedule: Q04DX003 (ip), vehicle: Klucel (hydroxypropylcellulose) (HPC)
[8] = dose: 100.0 mg/kg/injection, schedule: Q04DX003 (ip), vehicle: other
[9] = dose: 200.0 mg/kg/injection, schedule: Q04DX003 (ip), vehicle: other
[10] = dose: 400.0 mg/kg/injection, schedule: Q04DX003 (ip), vehicle: saline with Tween-80
[11] = dose: 50.0 mg/kg/injection, schedule: Q01DX009 (ip), vehicle: saline with Tween-80

CCCCCC(O)C1C(=O)OC(C)C(O)/C=C/C=C/C=C/C=C\C=C(\C)C(O)CC(O)CC(O)CC(O)CC(O)CC(O)CC1O (stereo not drawn)
T/C (dose: 2.5 mg/kg/injection, schedule: Q01DX009 (ip), vehicle: saline): 111 % of control
T/C (dose: 5.0 mg/kg/injection, schedule: Q01DX009 (ip), vehicle: Klucel (hydroxypropylcellulose) (HPC)): 95 % of control
T/C (dose: 10.0 mg/kg/injection, schedule: Q01DX009 (ip), vehicle: Klucel (hydroxypropylcellulose) (HPC)): 105 % of control
T/C (dose: 20.0 mg/kg/injection, schedule: Q01DX009 (ip), vehicle: Klucel (hydroxypropylcellulose) (HPC)): 90 % of control

CCN(CC)CCCCCNc1cc(OC)cc2c(C)ccnc12
T/C [1]: 115 % of control
T/C [2]: 92 % of control

CC12CCC(C)(O)C(CC3=C1CCc1ccccc13)C2=O (stereo not drawn)
T/C (dose: 75.0 mg/kg/injection, schedule: Q04DX003 (ip), vehicle: saline): 100 % of control
T/C (dose: 150.0 mg/kg/injection, schedule: Q04DX003 (ip), vehicle: saline): 91 % of control
T/C (dose: 300.0 mg/kg/injection, schedule: Q04DX003 (ip), vehicle: saline): 95 % of control

CN(Cc1cnc2nc(N)nc(N)c2n1)c1ccc(C(=O)NC(CCC(=O)O)C(=O)O)cc1Br (stereo not drawn)
T/C (dose: 0.35 mg/kg/injection, schedule: Q01DX009 (ip), vehicle: saline): 231 % of control
T/C (dose: 0.7 mg/kg/injection, schedule: Q01DX009 (ip), vehicle: saline): 259 % of control
T/C (dose: 13.2 mg/kg/injection, schedule: Q04DX003 (ip), vehicle: saline with Tween-80): 250 % of control

N#C/C(C(=N)c1ccccc1)=C1\SS/C(=C(\C#N)C(=N)c2ccccc2)S1
T/C (dose: 1.5 mg/kg/injection, schedule: Q01DX009 (ip), vehicle: saline with Tween-80): 101 % of control

CCN(CCO)c1ccc(N)cc1C
T/C (dose: 1.56 mg/kg/injection, schedule: Q01DX009 (ip), vehicle: saline): 100 % of control
T/C (dose: 3.13 mg/kg/injection, schedule: Q01DX009 (ip), vehicle: saline): 100 % of control
T/C (dose: 6.25 mg/kg/injection, schedule: Q01DX009 (ip), vehicle: saline): 90 % of control

CC12CCC(O)CC1CCC1C2CCC2(C)C(C3=CC(=O)OC3)CCC12O (stereo not drawn)
T/C (dose: 2.0 mg/kg/injection, schedule: Q01DX009 (ip), vehicle: Klucel (hydroxypropylcellulose) (HPC)): 90 % of control
T/C (dose: 2.0 mg/kg/injection, schedule: Q01DX010 (ip), vehicle: carboxymethylcellulose (CMC)): 95 % of control
T/C (dose: 4.0 mg/kg/injection, schedule: Q01DX009 (ip), vehicle: Klucel (hydroxypropylcellulose) (HPC)): 105 % of control
T/C (dose: 8.0 mg/kg/injection, schedule: Q01DX009 (ip), vehicle: Klucel (hydroxypropylcellulose) (HPC)): 112 % of control
T/C (dose: 8.0 mg/kg/injection, schedule: Q01DX010 (ip), vehicle: carboxymethylcellulose (CMC)): 104 % of control

NC(N)=N/N=C\c1c2ccccc2cc2ccccc12
T/C (dose: 3.13 mg/kg/injection, schedule: Q01DX009 (ip), vehicle: other): 155 % of control
T/C (dose: 6.25 mg/kg/injection, schedule: Q01DX009 (ip), vehicle: other): 155 % of control
T/C (dose: 12.5 mg/kg/injection, schedule: Q01DX009 (ip), vehicle: other): 157 % of control

Cc1sc(N)c(C#N)c1C
T/C (dose: 50.0 mg/kg/injection, schedule: Q04DX003 (ip), vehicle: saline with Tween-80): 100 % of control
T/C [3]: 120 % of control
T/C [4]: 100 % of control

O=c1[nH]c2cc(F)ccc2o1
T/C [5]: 100 % of control
T/C [6]: 95 % of control
T/C [7]: 100 % of control

CCN1C(=O)c2ccccc2C1=O
T/C (dose: 50.0 mg/kg/injection, schedule: Q04DX003 (ip), vehicle: Klucel (hydroxypropylcellulose) (HPC)): 104 % of control
T/C (dose: 100.0 mg/kg/injection, schedule: Q01DX001 (ip), vehicle: Klucel (hydroxypropylcellulose) (HPC)): 104 % of control
T/C [5]: 118 % of control
T/C (dose: 200.0 mg/kg/injection, schedule: Q01DX001 (ip), vehicle: Klucel (hydroxypropylcellulose) (HPC)): 108 % of control
T/C [6]: 100 % of control
T/C (dose: 400.0 mg/kg/injection, schedule: Q01DX001 (ip), vehicle: Klucel (hydroxypropylcellulose) (HPC)): 104 % of control

ClCCc1cnc[nH]1
T/C (dose: 6.25 mg/kg/injection, schedule: Q04DX003 (ip), vehicle: water): 104 % of control
T/C (dose: 12.5 mg/kg/injection, schedule: Q04DX003 (ip), vehicle: water): 108 % of control
T/C (dose: 25.0 mg/kg/injection, schedule: Q04DX003 (ip), vehicle: water): 112 % of control
T/C (dose: 50.0 mg/kg/injection, schedule: Q04DX003 (ip), vehicle: water): 105 % of control
T/C (dose: 100.0 mg/kg/injection, schedule: Q04DX003 (ip), vehicle: water): 98 % of control

CCCCNC(c1ccc(C=NC(CC)(CO)CO)cc1)C(Br)(Br)Br (stereo not drawn)
T/C (dose: 50.0 mg/kg/injection, schedule: Q04DX003 (ip), vehicle: other): 100 % of control
T/C [8]: 100 % of control
T/C [9]: 104 % of control

Cc1n(C(C)C)c2c([n+]1C)C(=O)c1ccccc1C2=O
T/C (dose: 1.25 mg/kg/injection, schedule: Q01DX009 (ip), vehicle: alcohol): 118 % of control
T/C (dose: 2.5 mg/kg/injection, schedule: Q01DX009 (ip), vehicle: alcohol): 122 % of control

C/C=C/CCCCCCCC
T/C (dose: 100.0 mg/kg/injection, schedule: Q01DX001 (ip), vehicle: saline with Tween-80): 104 % of control
T/C (dose: 200.0 mg/kg/injection, schedule: Q01DX001 (ip), vehicle: saline with Tween-80): 104 % of control
T/C (dose: 400.0 mg/kg/injection, schedule: Q01DX001 (ip), vehicle: saline with Tween-80): 119 % of control

CC1CCC2C(C1)N(C(C)C)OC2(C)C (stereo not drawn)
T/C [3]: 109 % of control
T/C [4]: 100 % of control
T/C [10]: 90 % of control

Cc1ccccc1OS(=O)(=O)C(F)(F)C(F)(F)C(F)(F)C(F)(F)F
T/C [1]: 100 % of control
T/C [2]: 100 % of control
T/C (dose: 200.0 mg/kg/injection, schedule: Q01DX009 (ip), vehicle: saline): 106 % of control

CC(=O)/C(=C\c1ccc(Cl)c(Cl)c1)C(=O)c1ccccc1
T/C [8]: 113 % of control
T/C [9]: 113 % of control

CCNc1cc(Cl)nc(N)n1
T/C (dose: 12.5 mg/kg/injection, schedule: Q01DX009 (ip), vehicle: saline with Tween-80): 95 % of control
T/C (dose: 25.0 mg/kg/injection, schedule: Q01DX009 (ip), vehicle: saline with Tween-80): 104 % of control
T/C [11]: 104 % of control
T/C [3]: 108 % of control
T/C [4]: 95 % of control
T/C [10]: 112 % of control

NC1=NS(=O)(=O)N=C(N)C1=NNc1cccc(Cl)c1
T/C [11]: 94 % of control
T/C (dose: 100.0 mg/kg/injection, schedule: Q01DX009 (ip), vehicle: saline with Tween-80): 103 % of control
T/C (dose: 200.0 mg/kg/injection, schedule: Q01DX009 (ip), vehicle: saline with Tween-80): 92 % of control

C[N+](C)(C)CN1C(=O)c2ccccc2C1=O
T/C [1]: 87 % of control
T/C [2]: 100 % of control

CCOC(=O)/C=C\c1c(OC)nc2ccccn2c1=O (tested in a mixture with another compound)
T/C (dose: 100.0 mg/kg/injection, schedule: Q01DX009 (ip), vehicle: Klucel (hydroxypropylcellulose) (HPC)): 116 % of control
T/C [5]: 122 % of control
T/C (dose: 200.0 mg/kg/injection, schedule: Q01DX009 (ip), vehicle: Klucel (hydroxypropylcellulose) (HPC)): 121 % of control
T/C [6]: 109 % of control
T/C (dose: 400.0 mg/kg/injection, schedule: Q01DX009 (ip), vehicle: Klucel (hydroxypropylcellulose) (HPC)): 111 % of control
T/C [7]: 113 % of control

CC(=O)Nc1ccc2nc3ccc(NC(C)=O)cc3[n+](-c3ccccc3)c2c1
T/C (dose: 31.3 mg/kg/injection, schedule: Q01DX010 (ip), vehicle: saline): 168 % of control
T/C (dose: 62.5 mg/kg/injection, schedule: Q01DX010 (ip), vehicle: saline): 172 % of control
T/C (dose: 125.0 mg/kg/injection, schedule: Q01DX010 (ip), vehicle: saline): 181 % of control
T/C (dose: 250.0 mg/kg/injection, schedule: Q01DX010 (ip), vehicle: saline): 150 % of control
